The text below walks through data of PubChem BioAssay (NCI).

Each structure is given as a SMILES string.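 Protocol summary: plate cells (96-well), add compound at 5 concentrations, incubate 48 h, interpolate endpoints linearly. The concentration for full growth arrest is given as TGI.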

The test system of one experiment is SK-OV-3 ovarian. Put plainly: NCI-60 cell line screen, 48 h.
On to `CC(=O)C(CN1CCCCC1)C(c1ccccc1)c1c(O)c2ccccc2oc1=O` (centres undefined), for which the TGI is > 100 µM.
`C/C(=N\NC(=S)NC(C)C)c1nc2ncccc2[nH]1` registered a TGI of 33.4 µM.
Still for that read-out and setting: next, `Cc1cccc(N2C(=O)C3ON(C(C(N)=O)c4ccccc4)C(c4c5ccccc5c(Cl)c5ccccc45)C3C2=O)c1C` (centres undefined): > 50 µM; `Cc1cc(-c2nc3ccccc3s2)ccc1NS(=O)(=O)O`: > 100 µM.
As for `COc1cc(COC(=O)N[C@H](C(=O)O)C(C)(C)C)c([N+](=O)[O-])cc1OC`, the TGI is > 100 µM.
Molecule `c1cc(-c2cnc(-c3ccc4c(c3)CCCO4)o2)ccn1` showed a TGI of 57.3 µM.
`O=C(NS(=O)(=O)Nc1ccc(Cl)cc1)OCc1ccc(Cl)cc1Cl` yielded a TGI of 48.2 µM.

For another experiment, the system named is MALME-3M melanoma. Put plainly: NCI-60 cell line screen, 48 h.
For the molecule `CC(=O)C(CN1CCCCC1)C(c1ccccc1)c1c(O)c2ccccc2oc1=O` (centres undefined), the TGI is > 100 µM.
Consider `C/C(=N\NC(=S)NC(C)C)c1nc2ncccc2[nH]1`, for which the TGI was > 100 µM.
Regarding `Cc1cccc(N2C(=O)C3ON(C(C(N)=O)c4ccccc4)C(c4c5ccccc5c(Cl)c5ccccc45)C3C2=O)c1C` (centres undefined), the TGI turned out to be 34.7 µM.
`Cc1cc(-c2nc3ccccc3s2)ccc1NS(=O)(=O)O`: the TGI is > 100 µM.
On the same count and under the same terms, to `COc1cc(COC(=O)N[C@H](C(=O)O)C(C)(C)C)c([N+](=O)[O-])cc1OC` belongs > 100 µM; to `c1cc(-c2cnc(-c3ccc4c(c3)CCCO4)o2)ccn1`, 30.6 µM; to `O=C(NS(=O)(=O)Nc1ccc(Cl)cc1)OCc1ccc(Cl)cc1Cl`, 47.5 µM.

Another experiment relates to SR leukemia. Put plainly: NCI-60 cell line screen, 48 h.
Regarding `CC(=O)C(CN1CCCCC1)C(c1ccccc1)c1c(O)c2ccccc2oc1=O` (centres undefined), the TGI was > 100 µM.
`C/C(=N\NC(=S)NC(C)C)c1nc2ncccc2[nH]1`: the TGI was > 100 µM.
`Cc1cccc(N2C(=O)C3ON(C(C(N)=O)c4ccccc4)C(c4c5ccccc5c(Cl)c5ccccc45)C3C2=O)c1C` (centres undefined) showed a TGI of 5.53 µM.
In the case of `Cc1cc(-c2nc3ccccc3s2)ccc1NS(=O)(=O)O`, the TGI is > 100 µM.
Same read-out and setting: next, `COc1cc(COC(=O)N[C@H](C(=O)O)C(C)(C)C)c([N+](=O)[O-])cc1OC`: > 100 µM.
`c1cc(-c2cnc(-c3ccc4c(c3)CCCO4)o2)ccn1` had a TGI of 13.4 µM.
Turning to `O=C(NS(=O)(=O)Nc1ccc(Cl)cc1)OCc1ccc(Cl)cc1Cl`, the TGI was > 100 µM.

In a further experiment the test system is ACHN renal. The experiment is described as follows: NCI-60 cell line screen, 48 h.
As for `CC(=O)C(CN1CCCCC1)C(c1ccccc1)c1c(O)c2ccccc2oc1=O` (centres undefined), the TGI was > 100 µM.
For `C/C(=N\NC(=S)NC(C)C)c1nc2ncccc2[nH]1`, the TGI was > 100 µM.
The same measure, in the same setting: next, `Cc1cccc(N2C(=O)C3ON(C(C(N)=O)c4ccccc4)C(c4c5ccccc5c(Cl)c5ccccc45)C3C2=O)c1C` (centres undefined): 19.7 µM; `Cc1cc(-c2nc3ccccc3s2)ccc1NS(=O)(=O)O`: > 100 µM; `COc1cc(COC(=O)N[C@H](C(=O)O)C(C)(C)C)c([N+](=O)[O-])cc1OC`: > 100 µM.
`c1cc(-c2cnc(-c3ccc4c(c3)CCCO4)o2)ccn1` registered a TGI of 37.9 µM.
On to `O=C(NS(=O)(=O)Nc1ccc(Cl)cc1)OCc1ccc(Cl)cc1Cl`, for which the TGI is > 100 µM.

In the next experiment the test system is UACC-62 melanoma. Put plainly: NCI-60 cell line screen, 48 h.
`CC(=O)C(CN1CCCCC1)C(c1ccccc1)c1c(O)c2ccccc2oc1=O` (centres undefined): the TGI is > 100 µM.
The same measure, in the same setting: next, `C/C(=N\NC(=S)NC(C)C)c1nc2ncccc2[nH]1`: 98.7 µM; `Cc1cccc(N2C(=O)C3ON(C(C(N)=O)c4ccccc4)C(c4c5ccccc5c(Cl)c5ccccc45)C3C2=O)c1C` (centres undefined): 13.8 µM.
Take `Cc1cc(-c2nc3ccccc3s2)ccc1NS(=O)(=O)O`: the TGI was > 100 µM.
Regarding `COc1cc(COC(=O)N[C@H](C(=O)O)C(C)(C)C)c([N+](=O)[O-])cc1OC`, the TGI was > 100 µM.
Molecule `c1cc(-c2cnc(-c3ccc4c(c3)CCCO4)o2)ccn1` displayed a TGI of 31.7 µM.
`O=C(NS(=O)(=O)Nc1ccc(Cl)cc1)OCc1ccc(Cl)cc1Cl` gave a TGI of 32.3 µM.

The next experiment concerns BT-549 breast. Put plainly: NCI-60 cell line screen, 48 h.
For the molecule `CC(=O)C(CN1CCCCC1)C(c1ccccc1)c1c(O)c2ccccc2oc1=O` (centres undefined), the TGI was > 100 µM.
`C/C(=N\NC(=S)NC(C)C)c1nc2ncccc2[nH]1` yielded a TGI of 58.9 µM.
Same read-out and setting: next, `Cc1cccc(N2C(=O)C3ON(C(C(N)=O)c4ccccc4)C(c4c5ccccc5c(Cl)c5ccccc45)C3C2=O)c1C` (centres undefined): 22.6 µM; `Cc1cc(-c2nc3ccccc3s2)ccc1NS(=O)(=O)O`: > 100 µM; `COc1cc(COC(=O)N[C@H](C(=O)O)C(C)(C)C)c([N+](=O)[O-])cc1OC`: > 100 µM.
Turning to `c1cc(-c2cnc(-c3ccc4c(c3)CCCO4)o2)ccn1`, the TGI worked out at 29.1 µM.
`O=C(NS(=O)(=O)Nc1ccc(Cl)cc1)OCc1ccc(Cl)cc1Cl` came in with a TGI of 82.3 µM.

The subject of the next experiment is DU-145 prostate. Put plainly: NCI-60 cell line screen, 48 h.
On to `CC(=O)C(CN1CCCCC1)C(c1ccccc1)c1c(O)c2ccccc2oc1=O` (centres undefined), for which the TGI is > 100 µM.
Consider `C/C(=N\NC(=S)NC(C)C)c1nc2ncccc2[nH]1`, for which the TGI is > 100 µM.
With `Cc1cccc(N2C(=O)C3ON(C(C(N)=O)c4ccccc4)C(c4c5ccccc5c(Cl)c5ccccc45)C3C2=O)c1C` (centres undefined), the TGI stood at 43.2 µM.
As for `Cc1cc(-c2nc3ccccc3s2)ccc1NS(=O)(=O)O`, the TGI was > 100 µM.
For `COc1cc(COC(=O)N[C@H](C(=O)O)C(C)(C)C)c([N+](=O)[O-])cc1OC`, the TGI is > 100 µM.
`c1cc(-c2cnc(-c3ccc4c(c3)CCCO4)o2)ccn1` registered a TGI of 24.8 µM.
Take `O=C(NS(=O)(=O)Nc1ccc(Cl)cc1)OCc1ccc(Cl)cc1Cl`: the TGI came out at 46.5 µM.

The next experiment relates to HS 578T breast. Put plainly: NCI-60 cell line screen, 48 h.
Take `CC(=O)C(CN1CCCCC1)C(c1ccccc1)c1c(O)c2ccccc2oc1=O` (centres undefined): the TGI is > 100 µM.
`C/C(=N\NC(=S)NC(C)C)c1nc2ncccc2[nH]1` came in with a TGI of 69.7 µM.
Take `Cc1cccc(N2C(=O)C3ON(C(C(N)=O)c4ccccc4)C(c4c5ccccc5c(Cl)c5ccccc45)C3C2=O)c1C` (centres undefined): the TGI was > 50 µM.
Take `Cc1cc(-c2nc3ccccc3s2)ccc1NS(=O)(=O)O`: the TGI was > 59.5 µM.
Take `COc1cc(COC(=O)N[C@H](C(=O)O)C(C)(C)C)c([N+](=O)[O-])cc1OC`: the TGI was > 100 µM.
The same measure, in the same setting: to `c1cc(-c2cnc(-c3ccc4c(c3)CCCO4)o2)ccn1` belongs 42.2 µM; to `O=C(NS(=O)(=O)Nc1ccc(Cl)cc1)OCc1ccc(Cl)cc1Cl`, 37.5 µM.

The next experiment has as its system 786-0 renal. Put plainly: NCI-60 cell line screen, 48 h.
For the molecule `CC(=O)C(CN1CCCCC1)C(c1ccccc1)c1c(O)c2ccccc2oc1=O` (centres undefined), the TGI was > 100 µM.
With `C/C(=N\NC(=S)NC(C)C)c1nc2ncccc2[nH]1`, the TGI is > 100 µM.
`Cc1cccc(N2C(=O)C3ON(C(C(N)=O)c4ccccc4)C(c4c5ccccc5c(Cl)c5ccccc45)C3C2=O)c1C` (centres undefined): the TGI was determined as 20.5 µM.
Same read-out and setting: to `Cc1cc(-c2nc3ccccc3s2)ccc1NS(=O)(=O)O` belongs > 100 µM; to `COc1cc(COC(=O)N[C@H](C(=O)O)C(C)(C)C)c([N+](=O)[O-])cc1OC`, > 100 µM; to `c1cc(-c2cnc(-c3ccc4c(c3)CCCO4)o2)ccn1`, 53 µM.
Take `O=C(NS(=O)(=O)Nc1ccc(Cl)cc1)OCc1ccc(Cl)cc1Cl`: the TGI is > 100 µM.

In another experiment the test system is SK-MEL-5 melanoma. The experiment is described as follows: NCI-60 cell line screen, 48 h.
With `CC(=O)C(CN1CCCCC1)C(c1ccccc1)c1c(O)c2ccccc2oc1=O` (centres undefined), the TGI was > 100 µM.
On the same count and under the same terms, next, `C/C(=N\NC(=S)NC(C)C)c1nc2ncccc2[nH]1`: > 100 µM; `Cc1cccc(N2C(=O)C3ON(C(C(N)=O)c4ccccc4)C(c4c5ccccc5c(Cl)c5ccccc45)C3C2=O)c1C` (centres undefined): 13.9 µM; `Cc1cc(-c2nc3ccccc3s2)ccc1NS(=O)(=O)O`: > 100 µM.
As to `COc1cc(COC(=O)N[C@H](C(=O)O)C(C)(C)C)c([N+](=O)[O-])cc1OC`, the TGI was > 100 µM.
Molecule `c1cc(-c2cnc(-c3ccc4c(c3)CCCO4)o2)ccn1` gave a TGI of 25.4 µM.
`O=C(NS(=O)(=O)Nc1ccc(Cl)cc1)OCc1ccc(Cl)cc1Cl` registered a TGI of 39.1 µM.

The test system of another experiment is OVCAR-5 ovarian. The experiment is described as follows: NCI-60 cell line screen, 48 h.
In the case of `CC(=O)C(CN1CCCCC1)C(c1ccccc1)c1c(O)c2ccccc2oc1=O` (centres undefined), the TGI is > 100 µM.
With `C/C(=N\NC(=S)NC(C)C)c1nc2ncccc2[nH]1`, the TGI is > 100 µM.
In turn, `Cc1cccc(N2C(=O)C3ON(C(C(N)=O)c4ccccc4)C(c4c5ccccc5c(Cl)c5ccccc45)C3C2=O)c1C` (centres undefined) registered a TGI of 20.7 µM.
Take `Cc1cc(-c2nc3ccccc3s2)ccc1NS(=O)(=O)O`: the TGI was > 100 µM.
The same measure, in the same setting: next, `COc1cc(COC(=O)N[C@H](C(=O)O)C(C)(C)C)c([N+](=O)[O-])cc1OC`: > 100 µM.
In turn, `c1cc(-c2cnc(-c3ccc4c(c3)CCCO4)o2)ccn1` returned a TGI of 44.5 µM.
Consider `O=C(NS(=O)(=O)Nc1ccc(Cl)cc1)OCc1ccc(Cl)cc1Cl`, for which the TGI turned out to be 70.3 µM.

For another experiment, the system named is SK-MEL-28 melanoma. The experiment is described as follows: NCI-60 cell line screen, 48 h.
On to `CC(=O)C(CN1CCCCC1)C(c1ccccc1)c1c(O)c2ccccc2oc1=O` (centres undefined), for which the TGI was > 100 µM.
As to `C/C(=N\NC(=S)NC(C)C)c1nc2ncccc2[nH]1`, the TGI was > 100 µM.
For the molecule `Cc1cccc(N2C(=O)C3ON(C(C(N)=O)c4ccccc4)C(c4c5ccccc5c(Cl)c5ccccc45)C3C2=O)c1C` (centres undefined), the TGI stood at 41.7 µM.
Take `Cc1cc(-c2nc3ccccc3s2)ccc1NS(=O)(=O)O`: the TGI is > 100 µM.
In the case of `COc1cc(COC(=O)N[C@H](C(=O)O)C(C)(C)C)c([N+](=O)[O-])cc1OC`, the TGI was > 100 µM.
Turning to `c1cc(-c2cnc(-c3ccc4c(c3)CCCO4)o2)ccn1`, the TGI is 32.2 µM.
Consider `O=C(NS(=O)(=O)Nc1ccc(Cl)cc1)OCc1ccc(Cl)cc1Cl`, for which the TGI amounted to 97.5 µM.
